Data from patent publication US20050209157A1, “Short bioactive peptides and methods for their use” (priority 2001, published 2005).
Like-named read-outs stand apart in the source and are kept apart here. No end group written: not given here.

How the values were obtained:
[1] = tested on: Pseudomonas aeruginosa ATCC 9027; experiment: Antimicrobial assay I, MIC by OD measurement; format: cell-based; settings: 37° C. for 24 hours, absorbance 620 nm
[2] = tested on: Staphylococcus aureus ATCC 6538; experiment: Antimicrobial assay I, MIC by OD measurement; format: cell-based; settings: 37° C. for 24 hours, absorbance 620 nm
[3] = in vitro; settings: human, WI38 normal lung fibroblast cells
Procedure: (§4) Viability of cells is determined by the dye response. In the following procedure, approximately 1.5×10^4 cells per well were added and viability was determined with the cells in a semi-confluent state. The assay was performed in a 96-well microtiter plate. After addition of peptide, the plate was set for 24 hours. MTT (5 mg/ml in phenol red-free RPMI-1640, 20 μl) was added to each well including positive control wells untreated with peptide. The plate was incubated at 37° C. for 4 hours. The liquid contents of each well was removed, and isopropanol with 0.1 M HCl (100 μl) was added to each well. The plate was sealed with parafilm to prevent evaporation of the isopropanol. The plate is allowed to rest for 5-10 minutes in order to solubilize the precipitate. Purified water (100 μl) was added to each well. Absorbance was determined with an ELISA Reader instrument. Color intensity at 540 nm is proportional to viability of cells.
(§5) WI38 (ATCC No. CCL75) is a normal fibroblast line of lung diploid cells, MCF7 (ATCC No. HTB22) is a breast adenocarcinoma tumor cell line, SW480 (ATCC No. CCL228) is a colon adenocarcinoma tumor cell line, BMKC is a cloned melanoma line derived from Bowes melanoma line HMCB (ATCC No. CRL9607), H1299 (ATCC No. CRL5803) is a lung large cell carcinoma tumor line, HeLaS3 (ATCC No. CCL2.2) is a cervical epitheleal carcinoma tumor cell line, and PC3 (ATCC No. CRL1435) is a prostate adenocarcinoma tumor cell line.

[4] = tested on: human red blood cells (RBC); experiment: in vitro; format: cell-based; settings: hemolytic assay, concentration at 50% hemolysis, 1 hour at 37° C.
[5] = tested on: WI38; settings: MTT, 24 hours with peptide; normal fibroblast line
Procedure: as §4, §5

[6] = tested on: BMKC; experiment: Anti-cancer assay, MTT, LD50; format: cell-based; settings: BMKC cloned melanoma line, 24 hours with peptide
Text: (§1) Numbers are LD50 values (μg/mL).

[7] = tested on: H1299; experiment: Anti-cancer assay, MTT, LD50; format: cell-based; settings: 24 hours with peptide, lung large cell carcinoma
Text: as §1

[8] = tested on: HeLaS3; experiment: Anti-cancer assay, MTT, LD50; format: cell-based; settings: 24 hours with peptide, cervical carcinoma
Text: as §1

[9] = tested on: SW480; experiment: Anti-cancer assay, MTT, LD50; format: cell-based; settings: SW480 colon adenocarcinoma line, 24 hours with peptide
Text: as §1

[10] = tested on: PC3; experiment: Anti-cancer assay, MTT, LD50; format: cell-based; settings: 24 hours with peptide, prostate adenocarcinoma
Text: as §1

[11] = tested on: MCF7; experiment: Anti-cancer assay, MTT, LD50; format: cell-based; settings: for LD50 MCF7: MCF7 breast adenocarcinoma line, MTT, 24 hours with peptide; for MCF7 LD50: Table 41, lower part
Text: as §1

[12] = tested on: clinical tobramycin resistant strain 960890198-3c; experiment: Activity against drug resistant strains; format: cell-based; settings: for activity against tr Pseudomonas 960890198-3c: clinical tobramycin resistant strain, Table 47; for activity against clinical tobramycin resistant strain: strain 960890198-3c
Procedure: (§2) Peptides were assayed for their activity against tobramycin sensitive and resistant strains.

[13] = tested on: tobramycin sensitive (ts) Pseudomonas ATCC 27853; experiment: Activity against drug resistant strains; format: cell-based; settings: tobramycin sensitive strain
Procedure: as §2

[14] = tested on: tobramycin resistant (tr) Pseudomonas ATCC 13096; experiment: Activity against drug resistant strains; format: cell-based; settings: for activity against tobramycin resistant versus tobramycin sensitive Pseudomonas: ATCC 13096 (tr) compared with ATCC 27853 (ts); for activity against tr Pseudomonas 13096: tobramycin resistant strain, Table 46
Procedure: as §2

[15] = tested on: yeast (Saccharomyces cerevisiae); experiment: Antimicrobial assay I, yeast assay in RPMI 1640; format: cell-based; settings: RPMI 1640 media
[16] = tested on: P. aeruginosa H774; format: cell-based, Pseudomonas aeruginosa; settings: P. aeruginosa H744; nalidixic acid + peptide at ¼ MIC; 0.5 or less = synergy
In short: (§3)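 FIC index, computed as 0.25 plus the ratio of combination to single-agent antibiotic MIC, defines synergy when 0.5 or below. Peptide fixed at one quarter MIC while chloramphenicol or nalidixic acid was serially diluted two-fold; antibiotic-alone MICs served as baselines.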

[17] = tested on: P. aeruginosa; format: cell-based, Pseudomonas aeruginosa; settings: P. aeruginosa H744; MIC of nalidixic acid with peptide at ¼ MIC
In short: as §3

[18] = tested on: P. aeruginosa H374; format: cell-based, Pseudomonas aeruginosa; settings: for FIC Index: 0.5 or less = synergy
In short: as §3

[19] = in vitro; format: cell-based, human; settings: human, human red blood cells
[20] = tested on: P. aeruginosa 27853; experiment: Synergy between doxacycline and peptides, MBC; format: cell-based, Pseudomonas aeruginosa; settings: doxacycline itself, printed in column With doxacycline
Text: Synergy between doxacycline and various peptides was investigated against P. aeruginosa 27853. The following table illustrates the beneficial effects of combining doxacycline and the peptides, where the numbers are the minimum bactericidal concentration (MBC; μg/mL). When combined with the peptides, the doxacycline was held at 10 ppm concentration.

[21] = tested on: MCF7 line of breast cancer cells; settings: for MCF7 LD50: agent alone; for Active agent LD50 on MCF7 cells: Total conc.: peptide plus tamoxifen concentration at LD50; for Active agent LD50 on MCF7 cells: Peptide conc.: peptide with tamoxifen, peptide concentration at LD50; for Active agent LD50 on MCF7 cells: Tamox. conc.: tamoxifen concentration at LD50 (peptide with tamoxifen; tamoxifen alone in its own line)
[22] = Leukocyte (WBC) inhibition, toxicity LD50; format: cell-based, human; settings: male, human, human leukocytes (buffy coat cells, mostly PBMCs); Table 41, lower part
Procedure: In vitro viability of human leukocyte cells in the presence of different peptides at different concentrations was determined by an Alamar Blue protocol. Alamar Blue (Promega, Madison, Wis.) is an indicator dye, formulated to measure quantitatively the proliferation and cytotoxicity of the cells. The dye consists of an oxidation-reduction (redox) indicator that yields a calorimetric change and a fluorescent signal in response to cellular metabolic activity.
Assay protocol: Blood from a human was drawn and centrifuged at 1500 rpm for 15 minutes at room temperature. The buffy coat cells at the plasma-red blood cell interface were aspirated. Buffy coat cells (mainly lymphocyte cells) were then transferred into 15 ml centrifuge tubes containing 5 ml of RPMI-1640 medium+10% Fetal Bovine Serum (Gibco, Grand Island, N.Y.). Additional medium was added to the tubes to bring the volume up to 10 ml. The buffy coat suspension was then carefully layered on 5 ml of Histopaque (Sigma Chemical Co., St. Louis, Mo.) and centrifuged at 1500 rpm for 30 minutes at room temperature. The interface which is mostly PBMCs (peripheral mononuclear cells) was aspirated and transferred to a 15 ml conical centrifuge tube and, resuspended in 2 ml cold RPMI-1640 and brought up to 15 ml with cold RPMI-1640 medium. Cells were centrifuged at 1500 rpm for 10 minutes. The supernatant was then aspirated and discarded. The cell pellet was re-suspended in 1 ml of cold RPMI 1640 and brought up to 15 ml with RPMI medium. This step was repeated twice, except that in the last step, the cells were resuspended with 1 ml of cold RPMI-1640 medium and cell counts were performed with a hemocytometer according to the Sigma cell culture catalogue.
Pokewood mitogen was used as a control along with positive and negative controls. Negative control cells were killed with 70% methanol. Positive (+) control cells were incubated in RPMI medium (untreated). […] of AlamarBlue was added to the cells, and readings were taken after 24 hours, 48 hours, 72 hours, and 96 hours using a fluorimeter (excitation 544/transmission 590 nm).
In choosing a peptide for possible treatment of a given indication it is important to match the therapeutic activity and specificity of the peptide with its possible toxic properties.
The protocols for WBC and WI38 stimulation have been discussed above. The RBC protocol follows Table 24.

[23] = LD50 WI38, WI38 normal lung fibroblast line, MTT, 24 hours with peptide
[24] = pH 7, hemolytic assay, concentration at 50% hemolysis, 1 hour at 37° C., read-out: LD50
[25] = WI38 LD50, Table 41, lower part
[26] = pH 7, Table 41, lower part, read-out: RBC LD50

Row | Compound | paerug9027 (MIC) [1] [µg/mL] | staph6538 (MIC) [2] [µg/mL] | CC50 at 24 h [3, 23] [µg/mL] | WI38 LD50 [5] [µg/mL] | LD50 BMKC [6] [µg/mL] | H1299 LD50 [7] [µg/mL] | HeLaS3 LD50 [8] [µg/mL] | LD50 SW480 [9] [µg/mL] | PC3 LD50 [10] [µg/mL] | LD50 MCF7 [11] [µg/mL] | activity against tr Pseudomonas 960890198-3c [12] | activity against clinical tobramycin resistant strain [12] | activity against ts Pseudomonas 27853 ([13]; Table 46) | activity against ts Pseudomonas 27853 ([13]; Table 47) | activity against tobramycin resistant versus tobramycin sensitive Pseudomonas [14] | activity against tr Pseudomonas 13096 [14] | yeast (MIC or MFC) [15] [µg/mL] | other results
1 | FAKKLAKKLAKAL-NH2 [P74, FAKKLAKKLAKAL-NH2] | 5 | 15 | 335 | 335 | 460 | 670 | 260 | 340 | 660 | 465 | 25 | greater activity against clinical tobramycin resistant strain 960890198-3c | 125 | 125 | greater activity against tobramycin resistant (tr) Pseudomonas ATCC 13096 than against tobramycin sensitive (ts) Pseudomonas ATCC 27853 | 16 | 100 | LD50 [4]: > (> indicates greater than 1000)
2 | FAKLLKLAAKKLL-NH2 [P56] | 5 | 200 | 250 | 250 | 205 | 370 | 300 | 215 | 435 | 500 | >50 | greater activity against clinical tobramycin resistant strain 960890198-3c | 125 | 125 | greater activity against tobramycin resistant (tr) Pseudomonas ATCC 13096 than against tobramycin sensitive (ts) Pseudomonas ATCC 27853 | 16 | 50 | FIC Index [16]: 1.25; MIC Nal-comb. [17]: 624 µg/mL; MIC Cm-comb. ([18]; MIC of chloramphenicol with peptide at ¼ MIC): 16 µg/mL; MIC Nal-comb. ([18]; MIC of nalidixic acid with peptide at ¼ MIC): 2500 µg/mL; FIC Index ([18]; chloramphenicol + peptide at ¼ MIC): 1.25; FIC Index ([18]; nalidixic acid + peptide at ¼ MIC, FIC=0.25+MIC comb/MIC alone): 0.75; HC50 at 1 h [19, 24]: 600 µg/mL
3 | FAKALAKLAKKLL-NH2 [P92] | 5 | 5 | 43 | 43 | 46 | 25 | 670 | 51 | 83 | 23 | 50 |  |  | 63 |  |  | 50 | HC50 at 1 h [19, 24]: 300 µg/mL
4 | C[C@H]1c2cccc(O)c2C(O)=C2C(=O)[C@]3(O)C(O)=C(C(N)=O)C(=O)[C@@H](N(C)C)[C@@H]3[C@@H](O)[C@@H]21 [Doxacycline] |  |  |  |  |  |  |  |  |  |  |  |  |  |  |  |  |  | MBC of doxacycline [20]: 100 µg/mL
5 | FAKLLAKLAKKIL-NH2 [P125] | 100 | 10 | 90 | 90 | 220 | 76 | 220 | 125 | 145 | 90 |  | greater activity against clinical tobramycin resistant strain 960890198-3c | 31 |  | greater activity against tobramycin resistant (tr) Pseudomonas ATCC 13096 than against tobramycin sensitive (ts) Pseudomonas ATCC 27853 | 4 | 50 | LD50 [4]: > (> indicates greater than 1000)
6 | FAKKLAKKLKKLAKKLAK-NH2 [164 (69)] |  |  |  |  |  |  |  |  |  |  |  |  |  |  |  |  |  | MCF7 LD50 [21]: 79 µg/mL; Active agent LD50 on MCF7 cells: Total conc. [21]: 7.1 µg/mL; Active agent LD50 on MCF7 cells: Peptide conc. [21]: 2.5 µg/mL; Active agent LD50 on MCF7 cells: Tamox. conc. [21]: 4.6 µg/mL; CC50 at 24 h [3, 25]: 60 µg/mL; HC50 at 1 h [19, 26]: 900 µg/mL; MCF7 LD50 [11]: 79 µg/mL; CC50 [22]: 140 µg/mL
7 | KLAKKLAKLAKLAKAL-OH [121 (160)] |  |  |  |  |  |  |  |  |  |  |  |  |  |  |  |  |  | MCF7 LD50 [21]: 240 µg/mL; Active agent LD50 on MCF7 cells: Total conc. [21]: 14.7 µg/mL; Active agent LD50 on MCF7 cells: Peptide conc. [21]: 11 µg/mL; Active agent LD50 on MCF7 cells: Tamox. conc. [21]: 3.7 µg/mL; CC50 at 24 h [3, 25]: 700 µg/mL; HC50 at 1 h [19, 26]: > 1000 µg/mL; MCF7 LD50 [11]: 240 µg/mL; CC50 [22]: 900 µg/mL
